Patent publication US9133228B2, “Guanidinyl-substituted polyamides useful for treating human papilloma virus” (Nanovir, LLC, priority 2011, dated 2015)
pIC50: −log10 of the molar value.

Legend:
Assay type in all cases: cell-based, Human papilloma virus
[1] = tested on: HPV18; test: Inhibition of viral replication in cells that maintain HPV18 DNA, viral DNA quantified by real-time PCR
Text: (§1) Table 1a lists a number of exemplary polyamides synthesized in accordance with the present invention. The HPLC/MW values given in Table 1b were obtained using low resolution high pressure liquid chromatography/mass spectrometry (LR HPLC/MS), which provides moderate precision masses of single isotopomers rather than average molecular weights or exact masses. Table 2 presents a summary of measured IC50 values of certain of these polyamides against HPV16, HPV18 and HPV31. The IC50 is the concentration of compound required for 50% inhibition of viral replication in vitro. The polyamides were tested in cells that maintain HPV16, HPV18 or HPV31 DNA. Cells maintaining the selected HPV were cultured for 72 hours in the presence of the polyamide. Viral DNA was then quantified using real-time PCR and compared to vehicle (DMSO)-treated control cultures. […] Table 3 presents a summary of measured IC50 and IC90 values of certain of these polyamides against HPV16, HPV18 and HPV31.

[2] = tested on: HPV31; test: Inhibition of viral replication in cells that maintain HPV31 DNA, viral DNA quantified by real-time PCR
Text: as §1

[3] = tested on: HPV16; test: Inhibition of viral replication in cells that maintain HPV16 DNA, viral DNA quantified by real-time PCR
Text: as §1

[4] = cells maintaining HPV18 cultured 72 hours with polyamide, vs DMSO control, highest dose tested 10 μM
[5] = cells maintaining HPV31 cultured 72 hours with polyamide, vs DMSO control, highest dose tested 10 μM
[6] = cells maintaining HPV16 cultured 72 hours with polyamide, vs DMSO control, highest dose tested 10 μM

SMILES | pIC50 ([1]; Table 3, 72 hours) | IC90 ([1]; Table 3, 72 hours) | pIC50 [1, 4] | pIC50 ([2]; Table 3, 72 hours) | IC90 ([2]; Table 3, 72 hours) | pIC50 [2, 5] | pIC50 ([3]; Table 3, 72 hours) | IC90 ([3]; Table 3, 72 hours) | pIC50 [3, 6]
CN(CCCN)CCCNC(=O)CCNC(=O)c1cc(NC(=O)CCNC(=O)c2cc(NC(=O)c3cc(NC(=O)c4cc(NC(=O)CCNC(=O)c5cc(NC(=O)c6cc(NC(=O)c7cc(NC(=O)CCCNC(=O)c8cc(NC(=O)CCNC(=O)c9cc(NC(=O)c%10cc(NC(=O)CCNC(=O)c%11cc(NC(=O)c%12cc(NC(=O)c%13cc(N=C(N(C)C)N(C)C)cn%13C)cn%12C)cn%11C)cn%10C)cn9C)cn8C)cn7C)cn6C)cn5C)cn4C)cn3C)cn2C)cn1C [NV1098, TMG-PyPyPyβPyPyβPy-γ-PyPyPyβPyPyPyβPyβ-Ta•3TFA] | 7.77 | > 10 µM | 7.77 | 7.62 | 0.549 µM | 7.62 | 7.96 | 1.36 µM | 7.96
CN(CCCN)CCCNC(=O)CCNC(=O)c1cc(NC(=O)CCNC(=O)c2cc(NC(=O)c3cc(NC(=O)c4cc(NC(=O)CCNC(=O)c5cc(NC(=O)c6cc(NC(=O)CCNC(=O)c7cc(NC(=O)[C@H](N)CCNC(=O)c8nc(NC(=O)c9cc(NC(=O)CCNC(=O)c%10cc(NC(=O)c%11cc(NC(=O)CCNC(=O)c%12cc(NC(=O)c%13cc(NC(=O)c%14cc(N=C(N(C)C)N(C)C)cn%14C)cn%13C)cn%12C)cn%11C)cn%10C)cn9C)cn8C)cn7C)cn6C)cn5C)cn4C)cn3C)cn2C)cn1C [NV1073, TMG-PyPyPyβPyPyβPyIm-γNH2-PyβPyPyβPyPyPyβPyβ-Ta•5TFA] | – | – | 6.39 | – | – | 6.66 | – | – | 6.57
CN(C)CCCNC(=O)CCNC(=O)c1cc(NC(=O)c2cc(NC(=O)c3cc(NC(=O)c4cc(NC(=O)CCNC(=O)c5cc(NC(=O)c6cc(NC(=O)CCCNC(=O)c7cc(NC(=O)c8cc(NC(=O)c9cc(NC(=O)CCNC(=O)c%10cc(NC(=O)c%11cc(N=C(N(C)C)N(C)C)cn%11C)cn%10C)cn9C)cn8C)cn7C)cn6C)cn5C)cn4C)cn3C)cn2C)cn1C [NV1083, TMG-PyPyβPyPyPy-γ-PyPyβPyPyPyPyβ-Dp•2TFA] | – | – | 6.03 | – | – | 5.51 | – | – | 5.62
CN(CCCN)CCCNC(=O)CCNC(=O)c1cc(NC(=O)c2cc(NC(=O)c3cc(NC(=O)c4cc(NC(=O)CCNC(=O)c5cc(NC(=O)c6cc(NC(=O)CCCNC(=O)c7cc(NC(=O)c8cc(NC(=O)c9cc(NC(=O)CCNC(=O)c%10cc(NC(=O)c%11cc(N=C(N(C)C)N(C)C)cn%11C)cn%10C)cn9C)cn8C)cn7C)cn6C)cn5C)cn4C)cn3C)cn2C)cn1C [NV1084, TMG-PyPyβPyPyPy-γ-PyPyβPyPyPyPyβ-Ta•3TFA] | – | – | 5.98 | – | – | 5.14 | – | – | 5.72
CN(CCCN)CCCNC(=O)CCNC(=O)c1cc(NC(=O)CCNC(=O)c2cc(NC(=O)c3cc(NC(=O)c4cc(NC(=O)CCNC(=O)c5cc(NC(=O)c6cc(NC(=O)c7cc(NC(=O)CCCNC(=O)c8cc(NC(=O)CCNC(=O)c9cc(NC(=O)c%10cc(NC(=O)CCNC(=O)c%11cc(NC(=O)c%12cc(N=C(N(C)C)N(C)C)cn%12C)cn%11C)cn%10C)cn9C)cn8C)cn7C)cn6C)cn5C)cn4C)cn3C)cn2C)cn1C [NV1097, TMG-PyPyβPyPyβPy-γ-PyPyPyβPyPyPyβPyβ-Ta•3TFA] | 6.59 | > 10 µM | 6.59 | 7.40 | 10 µM | 7.40 | 7.15 | 1.41 µM | 7.15
CN(C)CCCNC(=O)CCNC(=O)c1cc(NC(=O)c2cc(NC(=O)c3cc(NC(=O)CCNC(=O)c4cc(NC(=O)c5cc(NC(=O)c6cc(NC(=O)CCNC(=O)c7cc(NC(=O)c8cc(NC(=O)CCCNC(=O)c9cc(NC(=O)c%10cc(NC(=O)CCNC(=O)c%11nc(NC(=O)c%12cc(NC(=O)c%13cc(NC(=O)CCNC(=O)c%14cc(N=C(N(C)C)N(C)C)cn%14C)cn%13C)cn%12C)cn%11C)cn%10C)cn9C)cn8C)cn7C)cn6C)cn5C)cn4C)cn3C)cn2C)cn1C [NV1080, TMG-PyβPyPyImβPyPy-γ-PyPyβPyPyPyβPyPyPyβ-Dp•3TFA] | – | – | 7.46 | – | – | 7.33 | – | – | 7.28
CN(C)CCCNC(=O)CCNC(=O)c1cc(NC(=O)CCNC(=O)c2cc(NC(=O)c3cc(NC(=O)c4cc(NC(=O)CCNC(=O)c5cc(NC(=O)c6cc(NC(=O)c7cc(NC(=O)[C@H](N)CCNC(=O)c8cc(NC(=O)CCNC(=O)c9cc(NC(=O)c%10cc(NC(=O)CCNC(=O)c%11cc(NC(=O)c%12cc(NC(=O)c%13cc(N=C(N(C)C)N(C)C)cn%13C)cn%12C)cn%11C)cn%10C)cn9C)cn8C)cn7C)cn6C)cn5C)cn4C)cn3C)cn2C)cn1C [NV1077, TMG-PyPyPyβPyPyβPy-γNH2-PyPyPyβPyPyPyβPyβ-Dp] | – | – | 7.82 | – | – | 7.49 | – | – | 7.02
CN(CCCN)CCCNC(=O)CCNC(=O)c1cc(NC(=O)CCNC(=O)c2cc(NC(=O)c3cc(NC(=O)c4cc(NC(=O)CCNC(=O)c5cc(NC(=O)c6cc(NC(=O)CCNC(=O)c7cc(NC(=O)CCCNC(=O)c8nc(NC(=O)c9cc(NC(=O)CCNC(=O)c%10cc(NC(=O)c%11cc(NC(=O)CCNC(=O)c%12cc(NC(=O)c%13cc(N=C(N(C)C)N(C)C)cn%13C)cn%12C)cn%11C)cn%10C)cn9C)cn8C)cn7C)cn6C)cn5C)cn4C)cn3C)cn2C)cn1C [NV1090, TMG-PyPyβPyPyβPyIm-γ-PyβPyPyβPyPyPyβPyβ-Ta•4TFA] | – | – | 7.28 | – | – | 7.66 | – | – | 7.29
CN(CCCN)CCCNC(=O)CCNC(=O)c1cc(NC(=O)c2cc(NC(=O)c3cc(NC(=O)CCNC(=O)c4cc(NC(=O)c5cc(NC(=O)c6cc(NC(=O)CCCNC(=O)c7cc(NC(=O)c8cc(NC(=O)CCNC(=O)c9nc(NC(=O)c%10cc(N=C(N(C)C)N(C)C)cn%10C)cn9C)cn8C)cn7C)cn6C)cn5C)cn4C)cn3C)cn2C)cn1C [NV1094, TMG-PyImβPyPy-γ-PyPyPyβPyPyPyβ-Ta•4TFA] | – | – | < 5.00 | – | – | < 5.00 | – | – | < 5.00
CN(CCCN)CCCNC(=O)CCNC(=O)c1cc(NC(=O)c2cc(NC(=O)c3cc(NC(=O)c4cc(NC(=O)CCNC(=O)c5cc(NC(=O)c6cc(NC(=O)CCCNC(=O)c7cc(NC(=O)c8cc(NC(=O)c9cc(NC(=O)CCNC(=O)c%10cc(N=C(N(C)C)N(C)C)cn%10C)cn9C)cn8C)cn7C)cn6C)cn5C)cn4C)cn3C)cn2C)cn1C [NV1082, TMG-PyβPyPyPy-γ-PyPyβPyPyPyPyβ-Ta•3TFA] | – | – | < 5.00 | – | – | < 5.00 | – | – | < 5.00
CN(C)CCCNC(=O)CCNC(=O)c1cc(NC(=O)c2cc(NC(=O)c3cc(NC(=O)c4cc(NC(=O)CCNC(=O)c5cc(NC(=O)c6cc(NC(=O)CCCNC(=O)c7cc(NC(=O)c8cc(NC(=O)c9cc(NC(=O)CCNC(=O)c%10cc(N=C(N(C)C)N(C)C)cn%10C)cn9C)cn8C)cn7C)cn6C)cn5C)cn4C)cn3C)cn2C)cn1C [NV1081, TMG-PyβPyPyPy-γ-PyPyβPyPyPyPyβ-Dp•2TFA] | – | – | < 5.00 | – | – | < 5.00 | – | – | < 5.00
CN(CCCN)CCCNC(=O)CCNC(=O)c1cc(NC(=O)c2cc(NC(=O)c3cc(NC(=O)CCNC(=O)c4cc(NC(=O)c5cc(NC(=O)c6cc(NC(=O)CCNC(=O)c7cc(NC(=O)c8cc(NC(=O)CCCNC(=O)c9cc(NC(=O)c%10cc(NC(=O)CCNC(=O)c%11nc(NC(=O)c%12cc(NC(=O)c%13cc(NC(=O)CCNC(=O)c%14cc(NC(=O)c%15cc(N=C(N(C)C)N(C)C)cn%15C)cn%14C)cn%13C)cn%12C)cn%11C)cn%10C)cn9C)cn8C)cn7C)cn6C)cn5C)cn4C)cn3C)cn2C)cn1C [NV1085, TMG-PyPyβPyPyImβPyPy-γ-PyPyβPyPyPyβPyPyPyβ-Ta•4TFA] | – | – | 7.39 | – | – | 7.49 | – | – | 7.54
CN(C)CCCNC(=O)CCNC(=O)c1cc(NC(=O)CCNC(=O)c2cc(NC(=O)c3cc(NC(=O)c4cc(NC(=O)CCNC(=O)c5cc(NC(=O)c6cc(NC(=O)CCNC(=O)c7cc(NC(=O)CCCNC(=O)c8nc(NC(=O)c9cc(NC(=O)CCNC(=O)c%10cc(NC(=O)c%11cc(NC(=O)CCNC(=O)c%12cc(NC(=O)c%13cc(NC(=O)c%14cc(N=C(N(C)C)N(C)C)cn%14C)cn%13C)cn%12C)cn%11C)cn%10C)cn9C)cn8C)cn7C)cn6C)cn5C)cn4C)cn3C)cn2C)cn1C [NV1088, TMG-PyPyPyβPyPyβPyIm-γ-PyβPyPyβPyPyPyβPyβ-Dp•3TFA] | – | – | 7.46 | – | – | 7.85 | – | – | 7.70
CN(CCCN)CCCNC(=O)CCNC(=O)c1cc(NC(=O)CCNC(=O)c2cc(NC(=O)c3cc(NC(=O)c4cc(NC(=O)CCNC(=O)c5cc(NC(=O)c6cc(NC(=O)CCNC(=O)c7cc(NC(=O)[C@H](N)CCNC(=O)c8nc(NC(=O)c9cc(NC(=O)CCNC(=O)c%10cc(NC(=O)c%11cc(NC(=O)CCNC(=O)c%12cc(NC(=O)c%13cc(N=C(N(C)C)N(C)C)cn%13C)cn%12C)cn%11C)cn%10C)cn9C)cn8C)cn7C)cn6C)cn5C)cn4C)cn3C)cn2C)cn1C [NV1096, TMG-PyPyβPyPyβPyIm-γNH2-PyβPyPyβPyPyPyβPβ-Ta•5TFA] | – | – | 7.44 | – | – | 7.46 | – | – | 7.62
CN(CCCN)CCCNC(=O)c1cc(NC(=O)c2cc(NC(=O)CCNC(=O)c3cc(NC(=O)c4cc(NC(=O)c5cc(NC(=O)CCNC(=O)c6cc(NC(=O)c7cc(NC(=O)CCNC(=O)c8cc(NC(=O)[C@H](N)CCNC(=O)c9nc(NC(=O)c%10cc(NC(=O)CCNC(=O)c%11cc(NC(=O)c%12cc(NC(=O)CCNC(=O)c%13cc(NC(=O)c%14cc(N=C(N(C)C)N(C)C)cn%14C)cn%13C)cn%12C)cn%11C)cn%10C)cn9C)cn8C)cn7C)cn6C)cn5C)cn4C)cn3C)cn2C)cn1C [NV1071, TMG-PyPyβPyPyβPyIm-γNH2-PyβPyPyβPyPyPyβPyPy-Ta•5TFA] | – | – | 7.03 | – | – | 7.02 | – | – | 6.59
